According to patent publication US12697353B2, “Compositions comprising cinnamaldehyde and zinc and methods of using such compositions” (SOCIÉTÉ DES PRODUITS NESTLÉ S.A., priority 2015, dated 2026):

What was measured:
[1] = nose temperature after ingestion in human subjects; assay type: in vivo; settings: fifteen minutes following ingestion, FIG. 7
Method: The nose temperature of the subjects was analyzed over the fifteen minutes following ingestion of the various compounds.

[2] = biological target: T1, hTRPA1 expressed in CHO cells (Homo sapiens, UniProt O75762); assay: in vitro activity of hTRPA1 expressed in CHO cells, intracellular calcium concentration with a fluorescent dye; assay type: cell-based; set-up: dose or concentration left out as unconfirmed; settings: according to a dose-response curve
T1 construct: expressed in transfected cells; host or cells: CHO cells

[3] = energy expenditure after ingestion in human subjects; assay type: in vivo
Method: Human subjects were administered placebo, a cooling flavor, capsaicin, or cinnamaldehyde. The energy expenditure was measured over the eighty minutes following ingestion. […] The increased sympathetic activity identified by measuring the facial temperature (increased blood flow on the chin) might explain the increased energy expenditure measured by indirect calorimetry.

[4] = postprandial fat oxidation after ingestion in human subjects; assay type: in vivo
Method: The postprandial fat oxidation was measured over the 90 minutes following ingestion of the various compounds.

[5] = chin temperature after ingestion in human subjects; assay type: in vivo; settings: eighty minutes following ingestion, FIG. 8
Method: The chin temperature of the subjects was measured over the eighty minutes following ingestion of the various compounds.

[6] = insulin sensitivity in mice with chronic ingestion of cinnamaldehyde in a high fat diet; assay type: in vivo; settings: mice chronically fed a high fat diet containing 0.2 wt % cinnamaldehyde, FIG. 11
From the text: The composition can thereby reduce glycemia.

TRPA1 = TRPA1 (Homo sapiens, UniProt O75762); settings: read-out: EC50 of TRPA1 activation; cited from earlier work
[7] = at a flavoring level judged significantly less intense than capsaicin

T1 sequence (O75762 whole entry): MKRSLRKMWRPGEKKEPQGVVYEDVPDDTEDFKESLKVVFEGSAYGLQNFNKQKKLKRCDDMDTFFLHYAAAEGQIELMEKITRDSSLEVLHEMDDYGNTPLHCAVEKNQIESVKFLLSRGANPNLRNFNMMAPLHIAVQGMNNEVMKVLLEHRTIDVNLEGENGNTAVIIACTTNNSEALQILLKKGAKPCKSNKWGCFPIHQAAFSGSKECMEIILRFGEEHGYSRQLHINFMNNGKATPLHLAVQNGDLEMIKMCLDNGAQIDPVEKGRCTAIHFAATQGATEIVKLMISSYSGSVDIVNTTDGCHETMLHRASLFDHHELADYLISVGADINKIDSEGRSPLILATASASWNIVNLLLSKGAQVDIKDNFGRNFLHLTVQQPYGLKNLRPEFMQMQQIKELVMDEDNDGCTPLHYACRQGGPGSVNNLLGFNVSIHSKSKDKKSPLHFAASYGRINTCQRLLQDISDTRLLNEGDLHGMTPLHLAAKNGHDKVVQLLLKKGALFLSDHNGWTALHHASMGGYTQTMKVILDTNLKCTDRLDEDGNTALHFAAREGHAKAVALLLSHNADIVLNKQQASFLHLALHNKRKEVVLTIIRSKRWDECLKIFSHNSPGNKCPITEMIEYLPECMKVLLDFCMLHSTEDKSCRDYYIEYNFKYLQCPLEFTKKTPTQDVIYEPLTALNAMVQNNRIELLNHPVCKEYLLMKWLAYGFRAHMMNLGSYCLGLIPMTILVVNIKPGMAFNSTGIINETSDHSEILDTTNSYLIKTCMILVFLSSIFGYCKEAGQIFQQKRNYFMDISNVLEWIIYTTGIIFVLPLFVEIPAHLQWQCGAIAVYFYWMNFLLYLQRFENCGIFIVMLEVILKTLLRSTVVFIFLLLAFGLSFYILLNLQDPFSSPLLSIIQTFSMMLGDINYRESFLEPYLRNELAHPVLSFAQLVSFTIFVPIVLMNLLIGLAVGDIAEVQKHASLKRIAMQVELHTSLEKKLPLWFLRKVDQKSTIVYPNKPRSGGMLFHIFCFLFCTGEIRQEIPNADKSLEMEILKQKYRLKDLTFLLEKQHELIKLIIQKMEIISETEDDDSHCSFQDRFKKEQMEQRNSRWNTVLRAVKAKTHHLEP
TRPA1, sequence (O75762 whole entry, species assumed): as the sequence (O75762 whole entry) above

| Structure (SMILES) | nose temperature [1] | efficacy on hTRPA1 of the positive control C+ [2] | impact on energy expenditure and sympathetic nervous system activity compared to capsaicin [3, 7] | energy expenditure compared to placebo ([3]; human subjects, eighty minutes following ingestion, time course and AUC, FIGS. 3 and 4) | effect on fat oxidation compared to capsaicin [4, 7] | postprandial fat oxidation compared to placebo ([4]; human subjects, 90 minutes following ingestion, time course and AUC, FIGS. 5 and 6) | chin temperature relative to baseline [5] | insulin sensitivity relative to mice fed the same high fat diet without cinnamaldehyde [6] | EC50 (TRPA1) [µM] |
| --- | --- | --- | --- | --- | --- | --- | --- | --- | --- |
| COc1cc(CNC(=O)CCCC/C=C/C(C)C)ccc1O [capsaicin, reference compound] | increase nose temperatures |  |  |  |  |  |  |  |  |
| O=CC=Cc1ccccc1 [cinnamaldehyde] | increase nose temperatures | maximum efficacy | significantly higher impact | increased | equivalent effect | maintained at higher levels | increases chin temperature for a prolonged time | improved insulin sensitivity | ~10 |
